Laboratory results: patent publication US11160272B2, “Methods for preserving tissue with medical grade honey” (TRITICUM EXPLOITATIE B.V., priority 2017, dated 2021)

Test system: bovine ovarian cortex tissue
Assay: Endothelial cell density (Factor VIII immunolocalization) in cultured ovarian cortex tissue
Format: cell-based
Details: treatment mean over 0 h, 4 h, 24 h, 48 h; L-Mesitran 0.2%, VEGF 50 ng.mL-1; in vitro culture TCM-199 with 10% cow serum
Description: Four mature crossbred beef cows (12 months of age) were used for this study. […] The 0.2% v/v concentration (L-Mesitran) was chosen according to the highest reported pro-angiogenic effect for this medical grade honey in an in vitro tissue culture. The ovarian cortex endothelial immunolocalization was quantified using Factor VIII [9] R Ag. Rabbit Polyclonal Antibody (ref 760-2642; BenchMark ULTRA IHC/ISH Module staining protocol; Ventana Medical Systems, Inc.; Roche, USA) at concentrations of 2.26 µg/ml, and Fiji software for the digital analysis, after 0 h, 4 h, 24 h and 48 h in each of the mentioned 4 groups. Cellular cytotoxicity (quantitation of lactate dehydrogenase, LDH [11], in cell culture supernatant) was also evaluated in the same mentioned time periods (CytoTox 96® Non-Radioactive Cytotoxicity Assay G1782, Promega GloMax Multi Detection System).
Data from ovarian cortex tissue endothelial density (immunohistochemistry data) and LDH quantification in cell culture supernatant, were analysed using the proc glimmix of SAS (Statistical Analysis Systems, SAS Inst., Inc., Cary, N.C., USA). The models included treatments and hours as fixed effects, and animal (cow) as random (co-variable) effect. The means of each treatment/hours were calculated and compared by the PDIFF multiple comparison test. The differences were considered significant for P≤0.05.

VEGF
Endothelial cell density (Factor VIII immunolocalization), treatment effect: 0.2942±0.1486
